Test results as given in patent US20250066389A1, “HETEROCYCLIC AMIDES AND METHODS OF USING THE SAME” (Rgenta Therapeutics, Inc., priority 2021, published 2025).
Counter-ions that a name gives are not always drawn.

These compounds were tested on PMS1 (assay: Mini-Gene Reporter Assay—PMS1 (firefly luciferase mini-gene reporter transiently transfected into HEK293 cells)). Conditions: Homo sapiens; at 5 uM; mini-gene firefly luciferase reporter in HEK293 cells; read-out: PMS1 % Effect at 5 uM.
Assay type: cell-based
From the text: Example 76. Mini-Gene Reporter Assay—PMS1
Mini-gene reporter constructs for each target site can be constructed by first PCR amplifying the region-of-interest including the sequence of the alternatively skipped, sequences of the immediate upstream and downstream introns, and sequences of the immediate upstream and downstream exons. Then the 3′ end of the amplified sequence can be ligated to a firefly luciferase reporter gene and cloned into the pcDNA3.1 vector backbone. The final reporter construct can be transiently transfected into HEK293 cells using Lipofectamine 3000 transfection reagents. Compounds that can induce the inclusion of the skipped exon in the reporter construct would increase the reporter firefly luciferase activity.
Test compounds may be diluted in duplicates and dispensed into an assay plate. Transient mini-gene reporter cell line stock is resuspended and dispensed into the assay plate. Assay plates are then centrifuged and incubated. A luciferase reagent (e.g. ONE-Glo firefly luciferase reagent from Promega®) may be added to the assay plate and the luminescence (RLU) signals recorded. EC50 values may be determined by curve fitting in Levenberg-Marquardt algorithm.
In Table D below, A indicates a IC50 (μM)<1 μM, B indicates a IC50 (μM) 1 μM to <10 μM, and C indicates a IC50 (μM) 10 μM to <50 μM. In Table D below, A indicates a >75% Effect at 5 μM μM. B indicates a 50 to <75% Effect at 5 μM μM, and C indicates a <50% Effect at 5 μM.

SMILES	activation at 5 µM [%]
CCOc1cc2nc(C)cn2cc1C(=O)Nc1ccc(N2CC[C@H](NC)C2)nn1 (single isomer, unassigned) [Compound 706]	> 75
CCOc1cc2nc(C)cn2cc1C(=O)Nc1ccc(N2CC[C@@H](NC)C2)nn1 (single isomer, unassigned) [Compound 707]	> 75
Cc1cn2cc(C(=O)Nc3ccc(N4CCNCC4)cc3F)ncc2n1 [Compound 101, N-(2-fluoro-4-(piperazin-1-yl)phenyl)-2-methylimidazo[1,2-a]pyrazine-6-carboxamide HCl Salt]	< 50
Cc1cn2cc(C(=O)Nc3ccc(N4CCNCC4)cc3)ncc2n1 [Compound 102, 2-methyl-N-(4-(piperazin-1-yl)phenyl)imidazo[1,2-a]pyrazine-6-carboxamide]	< 50
Cc1cn2cc(C(=O)Nc3ccc(N4CCNCC4)nc3)ncc2n1 [Compound 103, 2-methyl-N-(6-(piperazin-1-yl)pyridin-3-yl)imidazo[1,2-a]pyrazine-6-carboxamide]	< 50
Cc1cn2cc(C(=O)Nc3ccc(N4CCN[C@H](C)C4)nc3)ncc2n1 [Compound 104, hydrochloride]	< 50
Cc1cn2cc(C(=O)Nc3ccc(N4CCN[C@H](C)C4)cc3F)ncc2n1 [Compound 105, (R)—N-(2-fluoro-4-(3-methylpiperazin-1-yl)phenyl)-2-methylimidazo[1,2-a]pyrazine-6-carboxamide hydrochloride]	< 50
Cc1cn2cc(C(=O)Nc3ccc(N4C[C@H]5CC[C@@H](C4)N5)cc3F)ncc2n1 [Compound 106, N-(4-((1R,5S)-3,8-diazabicyclo[3.2.1]octan-3-yl)-2-fluorophenyl)-2-methylimidazo[1,2-a]pyrazine-6-carboxamide]	< 50
Cc1cn2cc(C(=O)Nc3ccc(N4CCN[C@@H](C)C4)cn3)cc(F)c2n1 [Compound 107, (S)-8-fluoro-2-methyl-N-(5-(3-methylpiperazin-1-yl)pyridin-2-yl)imidazo[1,2-a]pyridine-6-carboxamide TFA Salt]	50 to 75
Cc1cn2cc(C(=O)Nc3ccc(N4CCNCC4)cc3F)nc(C)c2n1 [Compound 109, N-(2-fluoro-4-(piperazin-1-yl)phenyl)-2,8-dimethylimidazo[1,2-a] pyrazine-6-carboxamide hydrochloride]	> 75
COc1c(C(=O)Nc2ccc(N3CCNCC3)cn2)cn2cc(C)nc2c1C [Compound 112, 7-methoxy-2,8-dimethyl-N-(5-(piperazin-1-yl)pyridin-2-yl)imidazo[1,2-a]pyridine-6-carboxamide]	< 50
COc1cc2nn(C)cc2cc1C(=O)Nc1ccc(N2CC3(CNC3)C2)cc1F [Compound 116, N-(2-fluoro-4-(2,6-diazaspiro[3.3]heptan-2-yl)phenyl)-6-methoxy-2-methyl-2H-indazole-5-carboxamide TFA Salt]	< 50
COc1cc2nn(C)cc2cc1C(=O)Nc1ccc(N2CC3CNCC3C2)cc1F (stereo not shown) [Compound 117, N-(2-fluoro-4-(hexahydropyrrolo[3,4-c]pyrrol-2(1H)-yl)phenyl)-6-methoxy-2-methyl-2H-indazole-5-carboxamide]	< 50
Cc1cn2cc(C(=O)Nc3ccc(N4CCNCC4)nc3)cc(F)c2n1 [Compound 121, 8-fluoro-2-methyl-N-(6-(piperazin-1-yl)pyridin-3-yl)imidazo[1,2-a]pyridine-6-carboxamide]	< 50

Same assay, conditions: Homo sapiens; mini-gene firefly luciferase reporter in HEK293 cells

IC50 [nM]	SMILES
< 1000	COc1cc2nc(C)cn2cc1C(=O)Nc1ccc(N2CCN[C@@H]3CC[C@@H]32)cc1F (racemic) [Compound 174, rac-N-(4-((1R,6S)-2,5-diazabicyclo[4.2.0]octan-2-yl)-2-fluorophenyl)-7-methoxy-2-methylimidazo[1,2-a]pyridine-6-carboxamide]
1000 to 10000	CCOc1cc2nc(C)cn2cc1C(=O)Nc1ccc(N2C[C@H]3CNCC[C@H]32)nn1 (racemic) [Compound 239]
1000 to 10000	CCOc1cc2nc(C)cn2cc1C(=O)Nc1ccc(N2CC[C@@H]3NCCC[C@@H]3C2)nn1 (racemic) [Compound 241]
1000 to 10000	CCOc1cc2nc(C)cn2cc1C(=O)Nc1ccc(N2CC[C@@H]3CNC[C@@H]3C2)nn1 (racemic) [Compound 246]
1000 to 10000	CCOc1cc2nc(C)cn2cc1C(=O)Nc1ccc(N2CCC[C@H]3NCC[C@H]32)nn1 (racemic) [Compound 252]
1000 to 10000	CCOc1cc2nc(C)cn2cc1C(=O)Nc1ccc(N2C[C@@H]3CNC[C@]3(C)C2)nn1 (racemic) [Compound 253]
1000 to 10000	CCOc1cc2nc(C)cn2cc1C(=O)Nc1ccc(N2CC[C@@H]3NCC[C@@H]3C2)nn1 (racemic) [Compound 261]
1000 to 10000	Cc1cn2cc(C(=O)Nc3ccc(N4CCNCC4)cc3F)cc(F)c2n1 [Compound 108, 8-fluoro-N-(2-fluoro-4-(piperazin-1-yl)phenyl)-2-methylimidazo[1,2-a]pyridine-6-carboxamide hydrochloride]
< 1000	COc1cc2nc(C)cn2cc1C(=O)Nc1ccc(N2CCNCC2)cn1 [Compound 110, 7-methoxy-2-methyl-N-(5-(piperazin-1-yl)pyridin-2-yl)imidazo[1,2-a]pyridine-6-carboxamide HCl Salt]
< 1000	COc1cc2nc(C)cn2cc1C(=O)Nc1ccc(N2CCNCC2)cc1F [Compound 111, N-(2-fluoro-4-(piperazin-1-yl)phenyl)-7-methoxy-2-methylimidazo [1,2-a]pyridine-6-carboxamide hydrogen chloride]
1000 to 10000	COc1cc2nn(C)cc2cc1C(=O)Nc1ccc(N2CCNCC2)cn1 [Compound 113, 6-methoxy-2-methyl-N-(5-(piperazin-1-yl)pyridin-2-yl)-2H-indazole-5-carboxamide HCl Salt]
< 1000	COc1cc2nn(C)cc2cc1C(=O)Nc1ccc(N2CCN[C@@H](C)C2)cc1F [Compound 114, (S)—N-(2-fluoro-4-(3-methylpiperazin-1-yl)phenyl)-6-methoxy-2-methyl-2H-indazole-5-carboxamide HCl Salt]
< 1000	COc1cc2nn(C)cc2cc1C(=O)Nc1ccc(N2CCNCC2)cc1F [Compound 115, N-(2-fluoro-4-(piperazin-1-yl)phenyl)-6-methoxy-2-methyl-2H-indazole-5-carboxamide HCl Salt]
< 1000	COc1cc2nc(C)cn2cc1C(=O)Nc1ccc(N2CCNCC2)nn1 [Compound 118, 7-methoxy-2-methyl-N-[6-(piperazin-1-yl)pyridazin-3-yl]imidazo[1,2-a]pyridine-6-carboxamide]
1000 to 10000	COc1cc2nc(C)cn2cc1C(=O)Nc1ccc(N2CCNCC2)nc1 [Compound 119, 7-methoxy-2-methyl-N-[6-(piperazin-1-yl)pyridin-3-yl]imidazo[1,2-a]pyridine-6-carboxamide]
1000 to 10000	COc1cc2nc(C)cn2cc1C(=O)Nc1cnc(N2CCNCC2)nc1 [Compound 120, 7-methoxy-2-methyl-N-(2-(piperazin-1-yl)pyrimidin-5-yl)imidazo[1,2-a]pyridine-6-carboxamide]
1000 to 10000	COc1cc2nn(C)cc2cc1C(=O)Nc1ccc(N2CCNCC2)nn1 [Compound 123, 6-methoxy-2-methyl-N-(6-(piperazin-1-yl)pyridazin-3-yl)-2H-indazole-5-carboxamide hydrochloride]
1000 to 10000	Cc1cn2cc(C(=O)Nc3ccc(N4CCN[C@@H](C)C4)nn3)nc(C)c2n1 [Compound 124, (S)-2,8-dimethyl-N-(6-(3-methylpiperazin-1-yl)pyridazin-3-yl)imidazo[1,2-a]pyrazine-6-carboxamide hydrochloride]
< 1000	COc1cc2nn(C)cc2cc1C(=O)Nc1ccc(N2CCN[C@@H](C)C2)nn1 [Compound 125, (S)-6-methoxy-2-methyl-N-(6-(3-methylpiperazin-1-yl)pyridazin-3-yl)-2H-indazole-5-carboxamide hydrochloride]
< 1000	CCOc1cc2nc(C)cn2cc1C(=O)Nc1ccc(N2CCNCC2)cc1F [Compound 126, 7-ethoxy-N-(2-fluoro-4-(piperazin-1-yl)phenyl)-2-methylimidazo[1,2-a]pyridine-6-carboxamide]
1000 to 10000	COc1c(C(=O)Nc2ccc(N3CCNCC3)cc2F)cn2cc(C)nc2c1C [Compound 127, N-(2-fluoro-4-(piperazin-1-yl)phenyl)-7-methoxy-2,8-dimethylimidazo[1,2-a]pyridine-6-carboxamide]

SMILES	IC50 [nM]
Cc1cn2cc(C(=O)Nc3ccc(N4CCN[C@@H](C)C4)nn3)c(OC3CCC3)cc2n1 [Compound 122, (S)-7-cyclobutoxy-2-methyl-N-(6-(3-methylpiperazin-1-yl)pyridazin-3-yl)imidazo[1,2-a]pyridine-6-carboxamide hydrochloride]	< 1000
Cc1cn2cc(C(=O)Nc3ccc(N4CCNCC4)cn3)c(OC3CCC3)cc2n1 [Compound 128, 7-cyclobutoxy-2-methyl-N-(5-(piperazin-1-yl)pyridin-2-yl) imidazo[1,2-a]pyridine-6-carboxamide hydrochloride]	< 1000
